Legend:
Assay type in all cases: cell-based, rat
BAX = assay: Western blot of BAX expression in RNVCs; settings: 6 h treatment
Method: (§1) Levels of protein expression of BCL-2 (FIG. 3A and FIG. 3B) BXL-XL (FIG. 3C) and BAX (FIG. 3C), in the RNVCs after 6 h of treatment (FIG. 3A, FIG. 3C, FIG. 3D) or 24 h (FIG. 3B). Co., untreated cell control. Each experiment was reproduced at least three times. Representative western blotting images and quantification of three independent experiments are presented as mean±SEM with single-factor ANOVA, with multiple Sidak comparisons. *, p<0.05 with respect to DMSO.
(§2) The H9C2 cells and RNVCs were detached in LB containing: 50 mM Tris, 150 mM NaCl, 1 mM EDTA, 0.5% deoxycholate, 1% Triton X 100, 0.1% SDS (pH 8.0). The cells were collected and placed on ice for 30 minutes. The cells were then centrifuged at 2000 g for 20 minutes at for 4° C. The supernatant was transferred to a new tube and stored on ice. The protein concentration was determined by BCA assay. The protein samples were diluted with sample buffer (2× Laemmli, Sigma), mixed, and heated for 5 minutes at 95° C. […] The images were recorded with a gel imaging system (Bio Rad). […]

H9C2 cells = assay: Seahorse XF Cell Mito stress test (OCR)
Method: FIG. 8B: the H9c2 cells were treated with the compounds for 6 h, then a mitochondrial respiration stress test was carried out.
The XFe96 extracellular flow analyzer (Seahorse Biosciences, North Billerica, MA, USA) was used to measure the bioenergetic function of H9C2 cardiomyocytes. The H9C2 cells were seeded at 20 000 cells per well in XF96 cell culture microplates; all the pretreatments were carried out with serum-free cell culture medium. The Agilent Seahorse XF glycolysis stress test was performed to measure glycolytic function in the H9C2 cells; the extracellular acidification rate (ECAR) was measured sequentially by 3 injections, 10 mM glucose, 2 μM oligomycin and 50 mM 2-deoxy-D-glucose (2-DG). The Agilent Seahorse XF Cell Mito stress test measured key parameters of mitochondrial function by directly measuring the oxygen consumption rate (OCR) of the H9C2 cells. The test used the built-in injection ports on XF sensor cartridges to add respiration modulators into the cell well during the test in order to reveal key parameters of mitochondrial function. Oligomycin at 2 μM was injected first after the baseline measurements. Then 1 μM of […] (FCCP) was injected. The third injection corresponds to 0.5 μM of antimycin A, to stop mitochondrial respiration. The oxidation of the exogenous fatty acids was measured simultaneously using the XF palmitate-BSA FAO substrate kit with the mitochondrial stress test on XF cells. The substrate-limited medium is DMEM with 0.5 mM glucose, 1 mM GlutaMAX, 0.5 mM carnitine and 1% fetal calf serum. Carnitine was added freshly on the day of the change of medium. The FAO test medium contains 111 mM NaCl, 4.7 mM KCl, 1.25 mM CaCl2, 2 mM MgSO4, 1.2 mM NaH2PO4, supplemented with 2.5 mM glucose, 0.5 mM carnitine and 5 mM HEPES on the day of the test, adjusted to pH 7.4 at 37° C. The H9C2 cells were seeded at 20 000 cells per well in XF96 cell culture microplates. […]
Next, the energy metabolism was analyzed in real time using the Seahorse technology in H9C2 cells.

LC3II = assay: LC3 I/II conversion by western blot in RNVCs; settings: 1 μM
Method: FIG. 4E: LC3-I/II protein levels in the RNVCs. Data are presented as mean±SEM with single-factor ANOVA, and multiple Sidak comparisons. *, p<0.05, **, p<0.01 with respect to DMSO.
as §2
Next, the hypothesis that the compounds could protect cardiac cells by activating autophagy, a catabolic process conserved in evolution that involves the degradation of damaged cytoplasmic components, was formulated. […] Then, the cells were treated with the hits and with H2O2 for 2 hours and their survival was analyzed 4 hours later by measuring LDH release (FIGS. 4B, 4C). […] In order to confirm the induction of autophagy by another approach, the RNVCs were transfected with a GFP-LC3 plasmid and the formation of the autophagosome was monitored 24 hours later. […]

BCL-XL = assay: Western blot of BCL-XL expression in RNVCs; settings: 6 h treatment
Method: as §1, §2

O=C1NC(c2ccccc2)=N/C1=C\c1cc2ccccc2c2ccccc12 [SG6163F]
expression of pro-apoptotic BAX protein (BAX): significantly decreased | OXPHOS (H9C2 cells; independently of the substrates): boost OXPHOS | increase in level of expression of LC3II (LC3II): > 1.5 fold

C[C@H]1O[C@@H](O[C@H]2[C@@H](O)C[C@H](O[C@H]3[C@@H](O)CC(O[C@H]4CC[C@@]5(C)[C@H](CC[C@@H]6[C@@H]5C[C@@H](O)[C@]5(C)[C@@H](C7=CC(=O)OC7)CC[C@]65O)C4)O[C@@H]3C)O[C@@H]2C)C[C@H](O)[C@@H]1O (stereo partly drawn) [digoxin]
expression of pro-apoptotic BAX protein (BAX): significantly decreased | expression of BCL-XL (BCL-XL): caused a decrease

C[C@]12CC[C@H](O)C[C@H]1CC[C@@H]1[C@@H]2CC[C@]2(C)[C@@H](C3=CC(=O)OC3)CC[C@]12O [digitoxigenin]
ATP production by oxidative phosphorylation (OXPHOS) (H9C2 cells; glucose and pyruvate as substrates, 6 h): improved ATP production by oxidative phosphorylation

— patent publication US20240226066A1, “CARDIOPROTECTION BY AUTOPHAGY INDUCTION AND METABOLIC REPROGRAMMING” (UNIVERSITE PARIS-SACLAY, priority 2021, published 2024)
